For assay [1], the target named is T1, human amylin 3(a) receptor (human calcitonin receptor + RAMP-3) in BHK570 cells (Homo sapiens, UniProt O60896+P30988).
T1 construct: expressed in transfected cells
Nature of the assay: ASSAY (II)a functional assay, human amylin receptor (CRE luciferase). The assay is classed as cell-based. The essentials: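 Readout is luminescence from a cAMP-responsive CRE-luc reporter, developed with LucLite for 30 min at room temperature. Cells were treated for 3 h at 37 °C in 10% FBS/DMEM buffered with 10 mM Hepes (pH 7.4).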

The next assay has as its target T2, rat calcitonin receptor (Rattus norvegicus, UniProt P32214).
T2 construct: expressed in transfected cells; host or cells: BHK tk'ts 13 (transient, FuGENE 6), membranes
T2 sequence (P32214 25-479 isoform P32214-2 limits assumed): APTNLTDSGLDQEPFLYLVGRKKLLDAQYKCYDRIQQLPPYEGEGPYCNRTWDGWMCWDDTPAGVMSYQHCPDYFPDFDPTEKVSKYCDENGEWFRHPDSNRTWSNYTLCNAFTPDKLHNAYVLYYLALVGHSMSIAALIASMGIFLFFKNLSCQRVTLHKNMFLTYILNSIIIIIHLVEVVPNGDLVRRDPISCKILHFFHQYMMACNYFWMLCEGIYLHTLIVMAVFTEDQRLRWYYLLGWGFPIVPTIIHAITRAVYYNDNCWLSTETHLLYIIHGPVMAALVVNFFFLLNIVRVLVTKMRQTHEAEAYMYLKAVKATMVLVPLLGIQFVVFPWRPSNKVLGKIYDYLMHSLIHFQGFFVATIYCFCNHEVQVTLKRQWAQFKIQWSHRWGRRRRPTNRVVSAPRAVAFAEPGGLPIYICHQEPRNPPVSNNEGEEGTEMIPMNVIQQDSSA
Nature of the assay: ASSAY (VIII) binding to the rat calcitonin receptor. The conditions noted are these: Table 7, read-out: rCTR bind IC50. The method, boiled down: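 Receptor source: membranes from transiently transfected BHK tk′ts 13 cells expressing rat calcitonin receptor, collected roughly 48 hours after transfection.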

Assay [2] concerns the target T3, human amylin receptor (membranes from Amylin 3(a)/CRE-luc cells) (Homo sapiens, UniProt O60896+P30988).
T3 construct: expressed in transfected cells
T3 sequence (P30988 25-474): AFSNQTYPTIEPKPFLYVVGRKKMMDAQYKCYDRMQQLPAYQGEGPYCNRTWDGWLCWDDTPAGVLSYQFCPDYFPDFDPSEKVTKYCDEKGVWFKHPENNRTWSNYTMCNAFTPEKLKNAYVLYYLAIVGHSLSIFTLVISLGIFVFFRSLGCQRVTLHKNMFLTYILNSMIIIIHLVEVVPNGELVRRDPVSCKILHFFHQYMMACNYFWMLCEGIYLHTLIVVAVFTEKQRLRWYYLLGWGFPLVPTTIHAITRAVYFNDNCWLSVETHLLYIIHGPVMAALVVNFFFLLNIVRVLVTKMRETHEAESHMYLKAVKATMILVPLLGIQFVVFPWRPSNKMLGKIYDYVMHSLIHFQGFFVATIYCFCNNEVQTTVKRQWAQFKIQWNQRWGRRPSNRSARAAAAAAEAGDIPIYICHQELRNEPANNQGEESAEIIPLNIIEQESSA
T3 sequence (O60896 24-148 partner): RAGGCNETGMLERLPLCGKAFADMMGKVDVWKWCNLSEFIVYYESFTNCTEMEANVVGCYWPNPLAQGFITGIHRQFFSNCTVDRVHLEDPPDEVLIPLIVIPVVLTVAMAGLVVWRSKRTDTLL
The experiment in a line: ASSAY (V) binding to the human amylin receptor (SPA, 125I-rat amylin).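 Further: competition binding of cell membranes (35 ng/µL) mixed with SPA beads in 384-well plates at 40 µL total volume, read by scintillation counting.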

Where [3] appears, read: hCTR funct. EC50 / hAmylin-R funct. EC50.
[4] abbreviates: hCTR funct. EC50 divided by hAmylin-R funct. EC50.
The mark [5] stands for this setting: human functional selectivity: hCTR funct. EC50 / hAmylin-R funct. EC50.
[6] abbreviates: Table 5, selectivity, hCTR bind IC50 / hAmylin-R bind IC50.
Where [7] appears, read: Table 5a, selectivity, hCTR bind IC50 / hAmylin-R bind IC50.
Setting [8] is: Table 5b, selectivity, hCTR bind IC50 / hAmylin-R bind IC50.
Where [9] appears, read: Table 5c, selectivity, hCTR bind IC50 / hAmylin-R bind IC50.
Where [10] appears, read: Table 7, human binding selectivity, included for comparison.
[11] abbreviates: Table 7a (preferred compounds), human binding selectivity, included for comparison.
Where [12] appears, read: ratio of human calcitonin receptor binding IC50 to human amylin receptor binding IC50.
[13] abbreviates: hCTR funct. EC50 over hAmylin-R funct. EC50.

The values that follow come from patent US9023789B2, “Amylin analogs and pharmaceutical compositions thereof” (Novo Nordisk A/S, priority 2012, dated 2015).

pEC50, pIC50: −log10 of the molar value. Where two headings read alike, the source gives them in different places. Numbered stars: 1 amine (or outer) side, 2 acyl side, 3 side chain; on linkers, the order of the positions; unused ones are H or OH. Bridge positions count the residues as written; N and C are the ends. Side chains are listed from the residue outwards. Peptide text beside a SMILES is read from it. * marks the point of attachment. C20 diacid = O=C(O)CCCCCCCCCCCCCCCCCCC(=O)*; γGlu = O=C(O)[C@H](CCC(=O)[*:2])N[*:1]; AEEA = NCCOCCOCC(=O)O

Take `CC[C@H](C)[C@H](NC(=O)[C@H](C)NC(=O)CNC(=O)[C@H](Cc1ccccc1)NC(=O)[C@H](CC(N)=O)NC(=O)[C@@H]1CCCN1C(=O)[C@H](CO)NC(=O)[C@H](CO)NC(=O)[C@H](Cc1c[nH]cn1)NC(=O)[C@H](CCCNC(=N)N)NC(=O)[C@H](CC(C)C)NC(=O)[C@H](Cc1ccccc1)NC(=O)[C@H](Cc1c[nH]cn1)NC(=O)[C@H](C)NC(=O)[C@H](CC(C)C)NC(=O)[C@H](CCCNC(=N)N)NC(=O)[C@H](CCC(N)=O)NC(=O)[C@@H](NC(=O)[C@H](C)NC(=O)[C@@H]1CSSC[C@H](NC(=O)[C@@H](N)CCCCNC(=O)CC[C@H](NC(=O)CCCCCCCCCCCCCCCCCCC(=O)O)C(=O)O)C(=O)N[C@@H](CC(N)=O)C(=O)N[C@@H]([C@@H](C)O)C(=O)N[C@@H](C)C(=O)N[C@@H]([C@@H](C)O)C(=O)N1)[C@@H](C)O)C(=O)N1CCC[C@H]1C(=O)N[C@@H](CO)C(=O)N[C@@H](CO)C(=O)N[C@H](C(=O)N1CCC[C@H]1C(=O)N[C@H](C(=O)NCC(=O)N1CCC[C@H]1C(=O)N[C@@H](CC(N)=O)C(=O)N[C@H](C(=O)N[C@@H](Cc1ccc(O)cc1)C(N)=O)[C@@H](C)O)C(C)C)[C@@H](C)O` [Example 116] (H-K([γGlu-C20 diacid])CNTATCATQRLAHFLRHSSPNFGAIPSSTPVGPNTY-NH2; disulfide 2-7): the “Ratio hCT/hAmylin funct.” value in assay [1] (setting [3]), in assay [1] (setting [4]) and in assay [1] (setting [5]) was 4.9 each time. For the same compound, the pIC50 on rat calcitonin receptor was 8.04. Moreover, the “Ratio hCT/hAmylin binding” value in assay [2] (setting [6]), in assay [2] (setting [7]), in assay [2] (setting [8]), in assay [2] (setting [9]), in assay [2] (setting [10]) and in assay [2] (setting [11]) was 24.8 in each case. The “Ratio hCT/hAmylin binding” value in assay [2] (setting [12]) came to 24.8.

As to `CC[C@H](C)[C@H](NC(=O)[C@H](C)NC(=O)CNC(=O)[C@H](Cc1ccccc1)NC(=O)[C@H](CC(N)=O)NC(=O)[C@@H]1CCCN1C(=O)[C@H](CO)NC(=O)[C@H](CO)NC(=O)[C@H](Cc1c[nH]cn1)NC(=O)[C@H](CCCNC(=N)N)NC(=O)[C@H](CC(C)C)NC(=O)[C@H](Cc1ccccc1)NC(=O)[C@H](C)NC(=O)[C@H](C)NC(=O)[C@H](CC(C)C)NC(=O)[C@H](CCCNC(=N)N)NC(=O)[C@H](CCC(N)=O)NC(=O)[C@@H](NC(=O)[C@H](C)NC(=O)[C@@H]1CSSC[C@H](NC(=O)[C@H](CCCNC(=N)N)NC(=O)CNC(=O)CC[C@H](NC(=O)CCCCCCCCCCCCCCCCCCC(=O)O)C(=O)O)C(=O)N[C@@H](CC(N)=O)C(=O)N[C@@H]([C@@H](C)O)C(=O)N[C@@H](C)C(=O)N[C@@H]([C@@H](C)O)C(=O)N1)[C@@H](C)O)C(=O)N1CCC[C@H]1C(=O)N[C@@H](CO)C(=O)N[C@@H](CO)C(=O)N[C@H](C(=O)N[C@@H](CC(N)=O)C(=O)N[C@H](C(=O)NCC(=O)N[C@@H](Cc1c[nH]cn1)C(=O)N[C@@H](CC(N)=O)C(=O)N[C@H](C(=O)N[C@@H](Cc1ccc(O)cc1)C(N)=O)[C@@H](C)O)C(C)C)[C@@H](C)O` [Example 101] ({C20 diacid-γGlu}-GRCNTATCATQRLAAFLRHSSPNFGAIPSSTNVGHNTY-NH2; disulfide 3-8), the “Ratio hCT/hAmylin funct.” value in assay [1] (setting [3]), in assay [1] (setting [4]), in assay [1] (setting [13]) and in assay [1] (setting [5]) was 4.9 each time. In assay [1] (human amylin receptor functional potency, assay (II), read-out: hAmylin-R funct. EC50), the negative-log EC50 (pEC50) is 9.96. The pIC50 is 6.31 on rat calcitonin receptor and 9.37 in assay [2] (Table 4, read-out: hAmylin-R bind IC50). The “Ratio hCT/hAmylin binding” value in assay [2] (setting [6]), in assay [2] (setting [7]), in assay [2] (setting [8]), in assay [2] (setting [9]), in assay [2] (setting [10]) and in assay [2] (setting [11]) was 68.6 throughout. Besides, the “Ratio hCT/hAmylin binding” value in assay [2] (setting [12]) turned out to be 68.6.

In the case of `CC[C@H](C)[C@H](NC(=O)[C@H](C)NC(=O)CNC(=O)[C@H](Cc1ccccc1)NC(=O)[C@H](CC(N)=O)NC(=O)[C@@H]1CCCN1C(=O)[C@H](CO)NC(=O)[C@H](CO)NC(=O)[C@H](Cc1c[nH]cn1)NC(=O)[C@H](CCCNC(=N)N)NC(=O)[C@H](CC(C)C)NC(=O)[C@H](Cc1ccccc1)NC(=O)[C@H](CC(N)=O)NC(=O)[C@H](C)NC(=O)[C@H](CC(C)C)NC(=O)[C@H](CCCNC(=N)N)NC(=O)[C@H](CCC(N)=O)NC(=O)[C@@H](NC(=O)[C@H](C)NC(=O)[C@@H]1CSSC[C@H](NC(=O)[C@@H](N)CCCCNC(=O)CC[C@H](NC(=O)CCCCCCCCCCCCC(=O)O)C(=O)O)C(=O)N[C@@H](CC(N)=O)C(=O)N[C@@H]([C@@H](C)O)C(=O)N[C@@H](C)C(=O)N[C@@H]([C@@H](C)O)C(=O)N1)[C@@H](C)O)C(=O)N1CCC[C@H]1C(=O)N[C@@H](CO)C(=O)N[C@@H](CO)C(=O)N[C@H](C(=O)N[C@@H](CC(N)=O)C(=O)N[C@H](C(=O)NCC(=O)N[C@@H](Cc1c[nH]cn1)C(=O)N[C@@H](CC(N)=O)C(=O)N[C@H](C(=O)N[C@@H](Cc1ccc(O)cc1)C(N)=O)[C@@H](C)O)C(C)C)[C@@H](C)O` [Example 112], the “Ratio hCT/hAmylin funct.” value in assay [1] (setting [4]), in assay [1] (setting [13]) and in assay [1] (setting [5]) was 38.8 throughout. The pIC50 on rat calcitonin receptor was 6.15. Moreover, the “Ratio hCT/hAmylin binding” value in assay [2] (setting [6]), in assay [2] (setting [7]), in assay [2] (setting [8]), in assay [2] (setting [9]), in assay [2] (setting [10]) and in assay [2] (setting [11]) was 23.5 throughout. For the same compound, the “Ratio hCT/hAmylin binding” value in assay [2] (setting [12]) stood at 23.5.

As to `CC[C@H](C)[C@H](NC(=O)[C@H](C)NC(=O)CNC(=O)[C@H](Cc1ccccc1)NC(=O)[C@H](CC(N)=O)NC(=O)[C@@H]1CCCN1C(=O)[C@H](CO)NC(=O)[C@H](CO)NC(=O)[C@H](Cc1c[nH]cn1)NC(=O)[C@H](CCCNC(=N)N)NC(=O)[C@H](CC(C)C)NC(=O)[C@H](Cc1ccccc1)NC(=O)[C@H](CCCCN)NC(=O)[C@H](C)NC(=O)[C@H](CC(C)C)NC(=O)[C@H](CCCNC(=N)N)NC(=O)[C@H](CCC(N)=O)NC(=O)[C@@H](NC(=O)[C@H](C)NC(=O)[C@@H]1CSSC[C@H](NC(=O)[C@@H](N)CCCCNC(=O)COCCOCCNC(=O)CC[C@H](NC(=O)CCCCCCCCCCCCCCCCCCC(=O)O)C(=O)O)C(=O)N[C@@H](CC(N)=O)C(=O)N[C@@H]([C@@H](C)O)C(=O)N[C@@H](C)C(=O)N[C@@H]([C@@H](C)O)C(=O)N1)[C@@H](C)O)C(=O)N1CCC[C@H]1C(=O)N[C@@H](CO)C(=O)N[C@@H](CO)C(=O)N[C@H](C(=O)N1CCC[C@H]1C(=O)N[C@H](C(=O)NCC(=O)N[C@@H](CO)C(=O)N[C@@H](CC(N)=O)C(=O)N[C@H](C(=O)N[C@@H](Cc1ccc(O)cc1)C(N)=O)[C@@H](C)O)C(C)C)[C@@H](C)O` [Example 74] (H-K([AEEA-γGlu-C20 diacid])CNTATCATQRLAKFLRHSSPNFGAIPSSTPVGSNTY-NH2; disulfide 2-7; N-terminus assumed), the pEC50 in assay [1] is 9.18. Further, the “Ratio hCT/hAmylin funct.” value in assay [1] (setting [4]), in assay [1] (setting [13]) and in assay [1] (setting [5]) was 56.3 each time. Besides, the figures for the pIC50 (at rat calcitonin receptor; in assay [2]) were 6.96 and 9.10, respectively. The “Ratio hCT/hAmylin binding” value in assay [2] (setting [6]), in assay [2] (setting [7]), in assay [2] (setting [8]), in assay [2] (setting [9]), in assay [2] (setting [10]) and in assay [2] (setting [11]) was 101.0 in each case. Also, the “Ratio hCT/hAmylin binding” value in assay [2] (setting [12]) was 101.0.
